What was measured:
Format in all cases: cell-based
human dermal fibroblasts = experiment: Human dermal fibroblast cells (hDFC) proliferation, cell viability assay (CellTiter-Glo, manual cell counting); conditions: hDFCs proliferation; control is DMSO
TK.6 lymphoblasts = experiment: In vitro genotoxicity: TK.6 micronuclei assay (FIG. 5B) and SOS chromotest (FIG. 5C); conditions: TK.6 micronuclei assay without S9, 24 hr, and SOS chromotest; across a concentration range
Procedure: (§1) The safety/toxicology profiles of a compound or salt of the present disclosure was evaluated via a series of in vitro genotoxicity assays, including the SOS-chromotest to determine bacterial genotoxicity, and the TK.6 micronucleus assay to determine chromosomal damage and forward mutations. Standard reactive oxygen species (ROS) and caspase 3/7 assay were conducted to determine general cellular toxicity. Moreover, a series of sensitization tests were conducted to predict any potential skin sensitivity. These include the direct peptide reactivity assay to evaluate haptenization, the KeratinoSens reporter assay to determine any potential sensitivity via the activation of a cytoprotective pathway, and an immunological assay using human immature monocyte-derived dendritic cells to evaluate any potential immunogenicity.
TK.6 lymphoblasts are a cell line used for gene mutation analyses. TK.6 lymphoblasts are heterozygous for the thymidine kinase gene (TK) and enable the detection of forward mutations and chromosomal damage, which manifests as micronuclei. TK.6 lymphoblasts are detectable via flow cytometry. TK.6 cells were dosed with the compounds or a vehicle control (0.1% v/v DMSO) and cultured without S9 metabolic activation for 24 hr. FIG. 5A-FIG. 5E show the results of in vitro genotoxicity assay and the TK.6 micronucleus assay. FIG. 5A are example plots of TK.6 cells treated with compound V-1. Methyl methanesulfonate, a genotoxic, alkylating agent was used as a positive control for micronuclei detection. […] The SOS chromotest is a bacteria-based test for genotoxicity. […] Cells were treated with either the compounds or vehicle control containing correspondingly % v/v-matched amounts of DMSO. High represents 10 µg/mL while low represents 1 μg/mL. Tested compounds elicited no or minor caspase 3/7 activation at low and high concentrations. In FIG. 5A-FIG. 5E, data represents mean±s.d. and representative of at least 2 experimental replicates.

Nrf2-ARE pathway = experiment: KeratinoSens Nrf2-ARE reporter assay (ARE-luciferase activity); conditions: across a concentration range
Procedure: as §1
The Nrf2-ARE pathway is a master regulator of cytoprotective responses to oxidative stress, and is an early indicator of skin sensitization. Nrf2 (nuclear factor erythroid 2-related factor) is a transcription factor that binds to antioxidant responsive elements (ARE). By fusing ARE to the light-producing luciferase gene, a KeratinoSens Nrf2-ARE reporter assay was constructed whereby luciferase signal is directly correlated to Nrf2-ARE pathway activation. […] FIG. 6B describes an in vitro dendritic cell sensitization test. Dendritic cell activation is widely-associated with downstream immunogenicity. CD14+ cells from human donor peripheral mononuclear cells were harvested and differentiated them into immature monocyte-derived DCs using granulocyte-macrophage colony-stimulating factor (GM-CSF) and interleukin-4 (IL-4), then treated with the lead compounds. Killed E. Coli and TNF-α were used as positive controls. FIG. 6C-FIG. 6E are example plots showing change in HLA-DR expression. Expression of CD80 (FIG. 6C), PDL-1 (FIG. 6D), and CD141 (FIG. 6E) as quantified via mean fluorescence intensity (MFI) following dosing with example compounds. […] In FIG. 6A-FIG. 6E, data represents mean±s.d. and representative of at least 2 experimental replicates.

| Molecule | Activity (Percent Increase Proliferation of hFDPCs (%)) (human dermal fibroblasts) | genotoxic transformation potential (TK.6 lymphoblasts) | skin sensitizing potential (Nrf2-ARE pathway activation) (Nrf2-ARE pathway) |
| --- | --- | --- | --- |
| Cn1c(SCC(=O)N2CCCCCC2)nnc1-c1ccccc1 [I-1, 1-(azepan-1-yl)-2-[(4-methyl-5-phenyl-1,2,4-triazol-3-yl)sulfanyl]ethanone] | C (increased proliferation of hFDPCs equals to or larger than 4% and less than 8%) | mild genotoxicity at higher concentrations | did not exhibit apparent Nrf2-ARE pathway activation |
| CCCCC(=O)NCCc1ccc(OC)cc1 [II-1, N-[2-(4-methoxyphenyl)ethyl]pentanamide] | C (increased proliferation of hFDPCs equals to or larger than 4% and less than 8%) | mild genotoxicity at higher concentrations | did not exhibit apparent Nrf2-ARE pathway activation |
| COc1ccc(NC(=O)C(=O)NCCCn2ccnc2)cc1 [III-1, N-(3-imidazol-1-ylpropyl)-N′-(4-methoxyphenyl)oxamide] | D (increased proliferation of hFDPCs equals to or larger than 8%) | mild genotoxicity at higher concentrations | did not exhibit apparent Nrf2-ARE pathway activation |
| Cc1[nH]c2ccc(C(=O)NCC3CCCO3)cc2c1C (stereo not drawn) [IV-1, 2,3-dimethyl-N-(oxolan-2-ylmethyl)-1H-indole-5-carboxamide] | C (increased proliferation of hFDPCs equals to or larger than 4% and less than 8%) | mild genotoxicity at higher concentrations | exhibited sensitizing potential |
| CC1(C)CC(C(N)=O)C(C)(C)N1 (stereo not drawn) [VII-17, 2,2,5,5-tetramethylpyrrolidine-3-carboxamide] | D (increased proliferation of hFDPCs equals to or larger than 8%) | – | – |
| NC(=O)C1CCCc2ccccc2N1 (stereo not drawn) [VII-18, 2,3,4,5-tetrahydro-1H-1-benzazepine-2-carboxamide] | D (increased proliferation of hFDPCs equals to or larger than 8%) | – | – |
| CCNC(=O)CCSc1nc(C)cc(C)n1 [VII-19, 3-(4,6-dimethylpyrimidin-2-yl)sulfanyl-N-ethylpropanamide] | C (increased proliferation of hFDPCs equals to or larger than 4% and less than 8%) | – | – |
| CC(=O)NC1CCN(Cc2ccccc2N(C)C)CC1 [VII-20, N-[1-[[2-(dimethylamino)phenyl]methyl]piperidin-4-yl]acetamide] | D (increased proliferation of hFDPCs equals to or larger than 8%) | – | – |
| NC(=O)C1CCCCC1NC(=O)c1ccc(Cl)cn1 (stereo not drawn) [VII-21, N-(2-carbamoylcyclohexyl)-5-chloropyridine-2-carboxamide] | D (increased proliferation of hFDPCs equals to or larger than 8%) | – | – |
| COc1ccccc1CN1CCNC(=O)C1CC(=O)N(C)C (stereo not drawn) [VII-22, 2-[1-[(2-methoxyphenyl)methyl]-3-oxopiperazin-2-yl]-N,N-dimethylacetamide] | D (increased proliferation of hFDPCs equals to or larger than 8%) | – | – |
| CN(C)c1ccccc1CN1CCN(C(=O)N2CCOCC2)CC1 [VII-23, [4-[[2-(dimethylamino)phenyl]methyl]piperazin-1-yl]-morpholin-4-ylmethanone] | D (increased proliferation of hFDPCs equals to or larger than 8%) | – | – |
| CCn1c(NN)nc2ccccc2c1=O [VII-24, 3-ethyl-2-hydrazinylquinazolin-4-one] | D (increased proliferation of hFDPCs equals to or larger than 8%) | – | – |
| CCCNC(=O)CCNC(=O)C(C)Oc1ccc(OC)cc1 (stereo not drawn) [VII-25, 2-(4-methoxyphenoxy)-N-[3-oxo-3-(propylamino)propyl]propanamide] | B (increased proliferation of hFDPCs equals to or larger than 1% and less than 4%) | – | – |
| CC(NC(=O)COc1ccc(CN(C)S(C)(=O)=O)cc1)c1ccccc1 (stereo not drawn) [VII-26, 2-[4-[[methyl(methylsulfonyl)amino]methyl]phenoxy]-N-(1-phenylethyl)acetamide] | D (increased proliferation of hFDPCs equals to or larger than 8%) | – | – |
| CC(C)n1cnnc1 [VII-27, 4-propan-2-yl-1,2,4-triazole] | D (increased proliferation of hFDPCs equals to or larger than 8%) | – | – |
| CC(=O)OC(Cn1ccnc1)c1ccccc1 (stereo not drawn) [VII-28, (2-imidazol-1-yl-1-phenylethyl) acetate] | A (increased proliferation of hFDPCs of less than 1%) | – | – |
| CCC(N)Cn1ccnc1 (stereo not drawn) [VII-29, 1-imidazol-1-ylbutan-2-amine] | A (increased proliferation of hFDPCs of less than 1%) | – | – |
| CCOC(Cn1ccnc1)OCC [VII-30, 1-(2,2-diethoxyethyl)imidazole] | D (increased proliferation of hFDPCs equals to or larger than 8%) | – | – |
| COCCN(CCCc1ccccc1)C(=O)NC(C)Cn1ccnc1 (stereo not drawn) [VII-31, 3-(1-imidazol-1-ylpropan-2-yl)-1-(2-methoxyethyl)-1-(3-phenylpropyl)urea] | A (increased proliferation of hFDPCs of less than 1%) | – | – |
| COc1ccc(CN2CCN(C(=O)CCn3ccnc3)CC2=O)cc1 [VII-32, 4-(3-imidazol-1-ylpropanoyl)-1-[(4-methoxyphenyl)methyl]piperazin-2-one] | A (increased proliferation of hFDPCs of less than 1%) | – | – |
| COc1ccc(CN2CCN(C(=O)Cn3ccnc3)CC2)cc1 [VII-33, 2-imidazol-1-yl-1-[4-[(4-methoxyphenyl)methyl]piperazin-1-yl]ethanone] | C (increased proliferation of hFDPCs equals to or larger than 4% and less than 8%) | – | – |
| COc1ccc(CCCc2nc3ccccc3[nH]2)cc1 [VII-34, 2-[3-(4-methoxyphenyl)propyl]-1H-benzimidazole] | D (increased proliferation of hFDPCs equals to or larger than 8%) | – | did not exhibit apparent Nrf2-ARE pathway activation |
| O=C(CSc1nnc(SCC(=O)N2CCCC2)s1)N1CCCC1 [VII-35, 2-[[5-(2-oxo-2-pyrrolidin-1-ylethyl)sulfanyl-1,3,4-thiadiazol-2-yl]sulfanyl]-1-pyrrolidin-1-ylethanone] | C (increased proliferation of hFDPCs equals to or larger than 4% and less than 8%) | – | – |
| O=C(CSc1nnnn1-c1ccc(O)cc1)N1CCCCC1 [VII-36, 2-[1-(4-hydroxyphenyl)tetrazol-5-yl]sulfanyl-1-piperidin-1-ylethanone] | D (increased proliferation of hFDPCs equals to or larger than 8%) | – | – |
| Cn1nnnc1SCC(=O)N1CCCCC1 [VII-37, 2-(1-methyltetrazol-5-yl)sulfanyl-1-piperidin-1-ylethanone] | C (increased proliferation of hFDPCs equals to or larger than 4% and less than 8%) | – | – |
| CCNC(=O)NC1CN(Cc2ccccc2N(C)C)C[C@@H]1OC (stereo partly drawn) [VII-38, 1-[(4S)-1-[[2-(dimethylamino)phenyl]methyl]-4-methoxypyrrolidin-3-yl]-3-ethylurea] | D (increased proliferation of hFDPCs equals to or larger than 8%) | – | – |
| oxetan-3-amine [VII-13] | D (increased proliferation of hFDPCs equals to or larger than 8%) | – | – |

Reference: patent US12564547B2, “Compositions, formulations, and methods for skin treatment” (Oddity Labs, LLC, priority 2022, dated 2026)
